pIC50: −log10 of the molar value. The source made the active and inactive calls.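 Rule for the calls: active = mean IC50 below 10 µM; inactive = the rest.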
molecular target: Apelin receptor (Homo sapiens) (UniProt P35414); test: apelin receptor inhibitor analogs – cell-based, luminescence, SAR follow-up (AID 463109); settings: CHO-K1 AGTRL-1 PathHunter beta-arrestin luminescence
Sequence (P35414 whole entry, looked up): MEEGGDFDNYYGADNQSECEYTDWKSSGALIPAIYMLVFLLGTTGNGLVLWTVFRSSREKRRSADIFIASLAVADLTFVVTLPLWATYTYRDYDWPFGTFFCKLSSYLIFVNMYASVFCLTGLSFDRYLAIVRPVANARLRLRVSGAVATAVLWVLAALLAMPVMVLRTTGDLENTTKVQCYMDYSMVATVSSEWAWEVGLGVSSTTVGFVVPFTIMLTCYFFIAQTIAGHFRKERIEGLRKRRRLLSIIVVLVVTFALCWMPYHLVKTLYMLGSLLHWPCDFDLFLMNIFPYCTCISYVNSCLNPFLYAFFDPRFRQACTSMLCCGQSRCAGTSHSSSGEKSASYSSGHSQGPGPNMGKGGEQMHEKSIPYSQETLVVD

Row | SMILES | pIC50 | IC50
1 | Cc1cc(C)nc(NNS(=O)(=O)c2ccc(F)c(Cl)c2)n1 | 5.58 | 
2 | CCC1CCCCN1CC(=O)c1ccc(OC(F)F)cc1 (stereo not given) |  | inactive
3 | CC1(C)CC2(CC(c3ccccc3F)c3cc(Cl)c(O)cc3O2)NC(=S)N1 (stereo not given) | 5.24 | 
4 | Oc1cccc2ccc(/C=C/c3ccccc3Cl)nc12 |  | inactive
5 | Cc1ccc(N=C2C(=O)Nc3c(C)cccc32)cc1 |  | inactive
6 | Cc1ccc(N=C2C(=O)Nc3ccccc32)cc1 |  | inactive
7 | COc1ccc(C(=O)CNc2cccc(F)c2)cc1 |  | inactive
8 | O=C(Nc1nc2ccc(F)cc2s1)c1ccccn1 |  | inactive
9 | Cc1ccc2nc(C)cc(C(=O)OCC(=O)c3ccc(Cl)c([N+](=O)[O-])c3)c2c1 |  | inactive
10 | Cc1ccc(N=C2C(=O)Nc3ccc(Br)cc32)cc1 | 5.33 | 
11 | CC(C)(C)c1ccc(-n2nc(C#N)c(Cl)cc2=O)cc1 | 5.45 | 
12 | Cc1cc(C)nc(NNS(=O)(=O)c2c(F)cc(F)cc2Br)n1 | 5.54 | 
13 | O=C(CNS(=O)(=O)c1ccccc1)OCC(=O)c1cccc([N+](=O)[O-])c1 |  | inactive
14 | O=C(COC(=O)c1cnccn1)c1ccc(Cl)c([N+](=O)[O-])c1 | 5.08 | 
15 | CSc1cccc(N=C2C(=O)Nc3ccccc32)c1 | 5.42 | 
16 | CC(=O)Nc1ccc(NC(=O)CCC(=O)OCC(=O)c2ccc(C)c([N+](=O)[O-])c2)cc1 |  | inactive
17 | O=C(CNC(=O)c1ccco1)NCC(=O)OCC(=O)c1ccc(Cl)c([N+](=O)[O-])c1 | 5.27 | 
18 | Cc1ccc(OCC(=O)OCC(=O)c2cccc([N+](=O)[O-])c2)cc1C |  | inactive
19 | COc1ccc(S(=O)(=O)NNc2nc(C)cc(C)n2)cc1Br |  | inactive
20 | NC(=O)c1ccccc1NCC(=O)c1ccc(Cl)cc1 | 5.54 | 
21 | O=c1cc(CSc2ccc(Cl)cc2)nc(-c2ccccn2)[nH]1 |  | inactive
22 | CCC[N+](CC#Cc1ccccc1)(CCC)CC(=O)c1ccc(Cl)cc1 |  | inactive
23 | O=c1c2cc(Br)ccc2[nH]c(=S)n1Cc1ccccn1 |  | inactive
24 | Cn1c(=O)c(C(=S)NC(=O)C2CC2)c(N)n(Cc2ccccc2)c1=O |  | inactive
25 | CC(C)OC(=O)CN1C(=O)C(=O)c2ccccc21 | 5.38 | 
26 | O=S(=O)(NN=Cc1ccc(-c2ccccc2Cl)o1)c1ccccc1 |  | inactive
27 | COc1ccc(N=C2C(=O)Nc3ccc(C)c(Br)c32)cc1 |  | > 79 µM (inactive)
28 | Cc1cccc2c1NC(=O)C2=Nc1ccc(Cl)cc1 | 5.09 | 

Row | SMILES | pIC50 | IC50
29 | O=C(CNc1ccc(Br)cc1)c1ccccc1 | 5.65 | 
30 | CC(C)Cc1nc2oc3c(Cl)ncnc3c2c2c1CCC2 |  | inactive
31 | Cc1ccc(C(=O)CNc2ccccc2)cc1 | 5.55 | 
32 | COc1ccccc1NCC(=O)c1ccc(Cl)cc1 | 5.46 | 
33 | COC(=O)C1NN=C(C(=O)c2ccc(Cl)cc2)C1c1ccc(OC)cc1 (stereo not given) |  | inactive
34 | COc1ccc(S(=O)(=O)NNc2nc(C)cc(C)n2)cc1[N+](=O)[O-] |  | inactive
35 | O=C1Nc2ccccc2C1=Nc1ccc(Br)cc1 | 5.26 | 
36 | O=C(COC(=O)c1ccncc1)c1ccc(Cl)c(Cl)c1 |  | inactive
37 | CC(C)N1CCc2c(sc(NC(=O)c3cc(-c4cccs4)nc4ccccc34)c2C(N)=O)C1 |  | inactive
38 | O=C1Nc2ccccc2C1=Nc1ccc(F)cc1 | 5.23 | 
39 | CCOC(=O)C1=NNC(C(=O)c2ccc(Cl)cc2)C1c1ccccc1 (stereo not given) |  | inactive
40 | FC(F)(F)c1cccc(Sc2nc(-c3ccccc3)nnc2C(F)(F)F)c1 |  | inactive
41 | COc1cccc(/C=C/c2ccc3cccc(O)c3n2)c1OC |  | inactive
42 | CCN(CC)CC(=O)c1ccc(-c2ccccc2)cc1 |  | inactive
43 | CNC(=O)c1nnsc1S(=O)(=O)c1ccc(Cl)cc1 |  | inactive
44 | O=C(CNc1cccc(Cl)c1)c1ccc(Br)cc1 |  | > 79 µM (inactive)
45 | Cc1ccc(C(=O)CNc2cc(C)ccc2C)cc1 | 5.64 | 
46 | O=C(COC(=O)c1cccnc1)c1ccc(Cl)c(Cl)c1 |  | inactive
47 | O=C(CNc1ccccc1C(=O)O)c1ccccc1 | 5.53 | 
48 | CC(=O)c1ccc(N=C2C(=O)Nc3ccccc32)cc1 | 5.84 | 
49 | Cc1cc(C)nc(NNS(=O)(=O)c2ccc(Cl)cc2)n1 | 5.05 | 
50 | CCOc1ccc(N=C2C(=O)Nc3ccc(C)c(Br)c32)cc1 | 5.18 | 
51 | S=C1NCCc2ccccc2C1c1ccccc1Cl (stereo not given) |  | inactive
52 | Cc1cccc(N=C2C(=O)Nc3c(Cl)cccc32)c1 | 5.64 | 
53 | O=C(Nc1nc2c(F)cc(F)cc2s1)c1ccccn1 | 5.12 | 
54 | CC(C(=O)OCC(=O)c1cccc([N+](=O)[O-])c1)N1C(=O)C2C3C=CC(C3)C2C1=O (stereo not given) |  | inactive
55 | Cc1ccc(C)c(NCC(=O)c2ccc(Cl)cc2)c1 | 6.05 | 

From PubChem BioAssay AID463109 (Sanford-Burnham Center for Chemical Genomics, 2010)
